Test results from patent publication US8420657B2 (Novartis AG, priority 2008, dated 2013).
pIC50: −log10 of the molar value.

How the values were obtained:
[1] = test system: JAK2-dependent nuclear translocation of STAT5-GFP in U-2 OS osteosarcoma cells; test: STAT5 nuclear translocation assay (Cellomics), rhEpo stimulated U-2 OS STAT5-GFP cells; format: cell-based; settings: Homo sapiens, U2OS; STAT5 translocation pathway
Source text: The medium-throughput (96-well format) cellular automated fluorescence microscopy Cellomics assay can be routinely used to assess the functional activation of Janus Kinases (JAKs), based on the nuclear translocation of their substrate, Signal Transducer and Activator of Transcription (STAT). Nuclear translocation can be monitored either in HT1080 fibrosarcoma cells stably transfected with STAT1 fused to Green Fluorescence Protein (GFP) or in U-2 OS osteosarcoma cells stably transfected with STAT5 fused to Green Fluorescence Protein (GFP). Stimulation of HT1080 cells with interferon-γ (IFN-γ) results in JAK1/JAK2-dependent nuclear translocation of STAT1-GFP, whereas stimulation of U-2 OS cells with recombinant human erythropoietin (rhEpo) results in JAK2-dependent nuclear translocation of STAT5-GFP, both of which can be quantified using the Cellomics Cyto/NucTrans software package. This assay may be used to provide an assessment of the nuclear-cytoplasmic differential (NCD) of STAT-GFP using Hoechst dye to define the boundaries of the nucleus.
U-2 OS osteosarcoma cells may be obtained from ATCC and can be cultured in standard RPMI medium supplemented with 10% FCS and 2 mM L-glutamine. Cells can be stably transfected with STAT5a-GFP using Lipofectamine following the manufacturers' protocol. 24 hours after transfection the medium can be replaced and selected in 400 μg/ml Geneticin. Subsequently, cells can be stably transfected with EpoR using Lipofectamine following the manufacturers' protocol. 24 hours after transfection the medium can be replaced and cells selected in 100 μg/ml Hygromycin B.
Compounds can be dissolved in DMSO to a final stock concentration of 10 mM and stored as aliquots at 4° C. Compounds may be pre-diluted in 100% DMSO at 10 mM, 3 mM 1 mM, 0.3 mM, 0.1 mM, 0.03 mM, 0.01 mM and 0.003 mM. Subsequently, compounds may be diluted in medium and added in 50 μl to the cells. The final compound concentrations tested may be 10 μM, 3 μM 1 μM, 0.3 μM, 0.1 μM, 0.03 μM, 0.01 μM and 0.003 μM and the final DMSO concentration can be 0.1%.
U-2 OS may be seeded at a cell density of 12,000 cells per well in clear-bottom black 96-well Packard View-Plates™. The following day, medium can be removed and replaced with medium containing either the vehicle (DMSO) or increasing concentrations of test compounds for 30 minutes at 37° C. Cells can then be stimulated for 1 hour by adding 10 μl per well of 50 U/ml rhEpo to obtain 5 U/ml of rhEpo as the final concentration. Following treatments, cells can fixed and processed as described above.
The plates can be read on a Cellomics® ArrayscanII automated fluorescence microscope plate reader equipped with a Mercury-Xenon white light illumination source and a Zeiss Axiovert inverted microscope, using the XF100 dichroic/emission filter cube and matching excitation filters, 10× magnification, and a 0.3 numerical aperture objective. Image acquisition and analysis can be performed using a customized protocol based on the ‘NuclearTranslocation’ Bioapplication. For each well, multiple images (fields) can be acquired until a minimum of 1000 cells are counted using two 2 channels: Channel 1 (Hoechst)=focus+nuclear mask, Channel 2 (GFP)=signal quantification in mask areas as outlined below. Nuclei may be first identified based on the Hoechst staining and a mask generated for each nucleus that then serves as a template to generate a circle (eroded inwards by 1 pixel) and a 3 pixel-wide collar-like ring (off-set outwards by 1 pixel), in which the nuclear and cytoplasmic intensity of GFP, respectively, are quantified in the corresponding channel. High content analysis yields numerous measurements per cell and the GFP intensity differential between the nuclear and the cytoplasmic masks may be chosen as a measure of sub-cellular STAT-GFP relocation. The resulting values may be averaged for all cells in the well to return a single measurement plus standard deviation. […]

GST-JAK2(808-1132) = molecular target: T1, GST-JAK2(808-1132) (Homo sapiens, UniProt O60674); test: JAK2 kinase assay (Caliper mobility shift, LabChip 3000); format: biochemical
T1 construct: GST-JAK2(808-1132); purchased Invitrogen (Carlsbad, USA) #4288
T1 sequence (O60674 808-1132): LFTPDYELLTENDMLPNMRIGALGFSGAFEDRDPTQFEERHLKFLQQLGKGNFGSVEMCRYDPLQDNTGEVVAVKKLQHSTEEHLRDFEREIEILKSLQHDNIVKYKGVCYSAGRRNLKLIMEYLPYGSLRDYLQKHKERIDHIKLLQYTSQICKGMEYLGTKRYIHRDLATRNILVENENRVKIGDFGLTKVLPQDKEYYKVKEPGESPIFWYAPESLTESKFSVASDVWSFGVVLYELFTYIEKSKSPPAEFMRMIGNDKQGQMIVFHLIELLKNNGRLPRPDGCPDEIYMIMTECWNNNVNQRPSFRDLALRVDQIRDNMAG
In short: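 Recombinant GST-JAK2(808-1132) kinase domain with FITC-labelled JAK3tide peptide substrate and ATP; 60 min at 30 °C, EDTA stop. Substrate/product ratio read by microfluidic mobility shift; compounds at 8 final concentrations, 10 to 0.003 μM.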

Cc1ccc(Nc2ncc3ccn(-c4cc(F)c(CN5CCOCC5)c(F)c4)c3n2)cc1CN1CCN(C2CC2)CC1 [Example 365, [3-(4-Cyclopropyl-piperazin-1-ylmethyl)-4-methyl-phenyl]-[7-(3,5-difluoro-4-morpholin-4-ylmethyl-phenyl)-7H-pyrrolo[2,3-d]pyrimidin-2-yl]-amine]
pIC50 [1]: 7.37
pIC50 (GST-JAK2(808-1132)): 8.34

C[C@@H]1CN(c2ccc(Nc3ncc4ccn(-c5ccc(S(N)(=O)=O)cc5)c4n3)cn2)C[C@H](C)N1 [Example 369, 4-{2-[6-(cis-3,5-Dimethyl-piperazin-1-yl)-pyridin-3-ylamino]-pyrrolo[2,3-d]pyrimidin-7-yl}-benzenesulfonamide]
pIC50 [1]: 7.24
pIC50 (GST-JAK2(808-1132)): ≥ 8.52

Cc1cc(Nc2ncc3ccn(-c4cc(F)c(CN5CCOCC5)c(F)c4)c3n2)cnc1N1CCNC(C)(C)C1 [Example 488, [7-(3,5-Difluoro-4-morpholin-4-ylmethyl-phenyl)-7H-pyrrolo[2,3-d]pyrimidin-2-yl]-[6-(dimethyl-piperazin-1-yl)-5-methyl-pyridin-3-yl]-amine]
pIC50 [1]: 7.39
pIC50 (GST-JAK2(808-1132)): ≥ 8.52

COC1CCN(Cc2ccc(Nc3ncc4ccn(-c5cc(F)c(CN6CCOCC6)c(F)c5)c4n3)cc2)C1 (racemic) [Example 506, [7-(3,5-Difluoro-4-morpholin-4-ylmethyl-phenyl)-7H-pyrrolo[2,3-d]pyrimidin-2-yl]-[4-(3-methoxy-pyrrolidin-1-ylmethyl)-phenyl]-amine]
pIC50 [1]: 7.42
pIC50 (GST-JAK2(808-1132)): ≥ 8.52

Cc1ccc(Nc2ncc3ccn(-c4cc(F)c(CN5CCOCC5=O)c(F)c4)c3n2)cc1CN1CCNCC1 [Example 485, 4-{2,6-Difluoro-4-[2-(4-methyl-3-piperazin-1-ylmethyl-phenylamino)-pyrrolo[2,3-d]pyrimidin-7-yl}-benzyl]-morpholin-3-one]
pIC50 [1]: 6.96
pIC50 (GST-JAK2(808-1132)): ≥ 8.52

Cc1cc(Nc2ncc3ccn(-c4cc(F)c(CN5CCOCC5=O)c(F)c4)c3n2)cnc1N1C[C@@H](C)N[C@@H](C)C1 [Example 483, 4-(4-{2-[6-(cis-3,5-Dimethyl-piperazin-1-yl)-5-methyl-pyridin-3-ylamino]-pyrrolo[2,3-d]pyrimidin-7-yl}-2,6-difluoro-benzyl)-morpholin-3-one]
pIC50 [1]: 7.91
pIC50 (GST-JAK2(808-1132)): ≥ 8.52

OC1CCN(c2ccc(Nc3ncc4ccn(-c5cc(F)c(CN6CCOCC6)c(F)c5)c4n3)cn2)C1 (racemic) [Example 347, 1-{5-[7-(3,5-Difluoro-4-morpholin-4-ylmethyl-phenyl)-7H-pyrrolo[2,3-d]pyrimidin-2-ylamino]-pyridin-2-yl}-pyrrolidin-3-ol]
pIC50 [1]: 7.88
pIC50 (GST-JAK2(808-1132)): ≥ 8.52

Fc1cc(-n2ccc3cnc(Nc4ccnc(CN5CCC(F)(F)C5)c4)nc32)cc(F)c1CN1CCOCC1 [Example 402, [7-(3,5-Difluoro-4-morpholin-4-ylmethyl-phenyl)-7H-pyrrolo[2,3-d]pyrimidin-2-yl]-[2-(3,3-difluoro-pyrrolidin-1-ylmethyl)-pyridin-4-yl]-amine]
pIC50 [1]: 5.86
pIC50 (GST-JAK2(808-1132)): ≥ 8.52

Cc1ccc(Nc2ncc3ccn(-c4ccc(C(=O)N5CCOCC5)c(F)c4)c3n2)cc1CN1CCNC(C)(C)C1 [Example 386, (4-{2-[3-(3,3-Dimethyl-piperazin-1-ylmethyl)-4-methyl-phenylamino]-pyrrolo[2,3-d]pyrimidin-7-yl}-2-fluoro-phenyl)-morpholin-4-yl-methanone]
pIC50 [1]: 7.00
pIC50 (GST-JAK2(808-1132)): 6.96

Cc1ccc(Nc2ncc3ccn(-c4cc(F)c(CN5CCOCC5)c(F)c4)c3n2)cc1CN1CCN(C)C(=O)C1 [Example 395, 4-{5-[7-(3,5-Difluoro-4-morpholin-4-ylmethyl-phenyl)-7H-pyrrolo[2,3-d]pyrimidin-2-ylamino]-2-methyl-benzyl}-1-methyl-piperazin-2-one]
pIC50 [1]: 7.77
pIC50 (GST-JAK2(808-1132)): ≥ 8.52

Cc1ccc(Nc2ncc3ccn(-c4ccc(S(=O)(=O)NC(C)(C)C)cc4)c3n2)cc1CN1CCNCC1 [Example 376, N-tert-Butyl-4-[2-(4-methyl-3-piperazin-1-ylmethyl-phenylamino)-pyrrolo[2,3-d]pyrimidin-7-yl]-benzenesulfonamide]
pIC50 [1]: 7.17
pIC50 (GST-JAK2(808-1132)): ≥ 8.52

Cc1ccc(Nc2ncc3ccn(-c4cc(F)c(CN5CCOCC5)c(F)c4)c3n2)cc1Cn1cc(CO)nn1 [Example 419, (1-{5-[7-(3,5-Difluoro-4-morpholin-4-ylmethyl-phenyl)-7H-pyrrolo[2,3-d]pyrimidin-2-ylamino]-2-methyl-benzyl}-1H-[1 2,3]triazol-4-yl)-methanol]
pIC50 [1]: 7.41
pIC50 (GST-JAK2(808-1132)): 8.37

Fc1cc(-n2ccc3cnc(Nc4ccc5c(c4)NCC5)nc32)cc(F)c1CN1CCOCC1 [Example 431, [7-(3,5-Difluoro-4-morpholin-4-ylmethyl-phenyl)-7H-pyrrolo[2,3-d]pyrimidin-2-yl]-(2,3-dihydro-1H-indol-6-yl)-amine]
pIC50 [1]: 7.63
pIC50 (GST-JAK2(808-1132)): 8.49

Fc1cc(-n2ccc3cnc(Nc4ccc(CC5CCNCC5)cc4)nc32)cc(F)c1CN1CCOCC1 [Example 383, [7-(3,5-Difluoro-4-morpholin-4-ylmethyl-phenyl)-7H-pyrrolo[2,3-d]pyrimidin-2-yl]-(4-piperidin-4-ylmethyl-phenyl)-amine]
pIC50 [1]: 8.21
pIC50 (GST-JAK2(808-1132)): 8.29

Fc1cc(-n2ccc3cnc(Nc4ccc(N5CCN(C6CC6)CC5)nc4)nc32)cc(F)c1CN1CCOCC1 [Example 457, [6-(4-Cyclopropyl-piperazin-1-yl)-pyridin-3-yl]-[7-(3,5-difluoro-4-morpholin-4-ylmethyl-phenyl)-7H-pyrrolo[2,3-d]pyrimidin-2-yl]-amine]
pIC50 [1]: 7.68
pIC50 (GST-JAK2(808-1132)): ≥ 8.52

Fc1cc(-n2ccc3cnc(Nc4ccc(CN5CCNCC5)nc4)nc32)cc(F)c1CN1CCOCC1 [Example 486, [7-(3,5-Difluoro-4-morpholin-4-yl methyl-phenyl)-7H-pyrrolo[2,3-d]pyrimidin-2-yl]-(6-piperazin-1-ylmethyl-pyridin-3-yl)-amine]
pIC50 [1]: 6.31
pIC50 (GST-JAK2(808-1132)): ≥ 8.52

Cc1ccc(Nc2ncc3ccn(-c4cc(F)c(CN5CCCC5=O)c(F)c4)c3n2)cc1CN1CCNCC1 [Example 463, 1-{2,6-Difluoro-4-[2-(4-methyl-3-piperazin-1-ylmethyl-phenylamino)-pyrrolo[2,3-d]pyrimidin-7-yl]-benzyl}-pyrrolidin-2-one]
pIC50 [1]: 7.32
pIC50 (GST-JAK2(808-1132)): ≥ 8.52

C[C@@H]1CN(c2ncc(Nc3ncc4ccn(-c5cc(F)c(CN6CCS(=O)(=O)CC6)c(F)c5)c4n3)cc2Cl)C[C@H](C)N1 [Example 430, [5-Chloro-6-(cis-3,5-dimethyl-piperazin-1-yl)-pyridin-3-yl]-{7-[4-(1,1-dioxido-thiomorpholin-4-ylmethyl)-3,5-difluoro-phenyl]-7H-pyrrolo[2,3-d]pyrimidin-2-yl}-amine]
pIC50 [1]: 8.44
pIC50 (GST-JAK2(808-1132)): ≥ 8.52

Cc1ccc(Nc2ncc3ccn(-c4ccc(S(=O)(=O)NC(C)(C)C)cc4)c3n2)cc1CN1CCN(C)CC1 [Example 353, N-tert-Butyl-4-{2-[4-methyl-3-(4-methyl-piperazin-1-ylmethyl)-phenylamino]-pyrrolo[2,3-d]pyrimidin-7-yl}-benzenesulfonamide]
pIC50 [1]: 7.77
pIC50 (GST-JAK2(808-1132)): 8.31
